Columns and labels:
[1] = test system: estrogen deficiency-induced osteoporosis mice; test: Treatment of estrogen deficiency-induced osteoporosis mice; format: in vivo; details: ovariectomized mice, 5 days per week for 2, 4, and 8 weeks; for trabecular bone microstructure: μCT
Procedure: Three-month-old female mice were subjected to bilateral ovariectomy or sham operation. Two weeks postoperatively, a CB1 antagonist (i.e., compounds 10, 63, and 119) or vehicle was administered 5 days per week for 2, 4, and 8 weeks. Bone mineral density and bone mineral contents in femurs, tibiae, and L1-L5 spine were measured by dual energy x-ray absorptiometry. Trabecular bone microstructure (i.e., trabecular bone volume, thickness, number, separation, porosity, and bone volume index) in femurs, tibiae and spine were analyzed by μCT scanning Mechanical strength of the bones was detected by a material test machine.

[2] = test system: osteoarthritic rats; test: ACLT-induced knee osteoarthritis; format: in vivo, Sprague-Dawley rats; details: 8 weeks
Procedure: Four-month-old male Sprague-Dawley rats were anesthetized using intramuscular atropine (1 mg/kg) and intraperitoneal pentobarbital. The left knees of rats underwent medial parapatellar arthrotomy and transection of the anterior cruciate ligament (ACLT) to induce knee osteoarthritis. The osteoarthritic rats were given a CB1 antagonist (i.e., compounds 10, 63, and 119) or vehicle for 8 weeks. Knee joint radiography was evaluated by a mammography system. Gait profiles of joints in osteoarthritic rats were analyzed by a CatWalk system. Joint morphology was histologically evaluated by a Mankin scoring system.

[3] = test system: diabetic rats; test: Streptozotocin-induced diabetic nephropathy and kidney fibrosis; format: in vivo, Wistar rats; details: 4 weeks; for kidney fibrosis: periodic acid-Schiff staining
Procedure: Three-month-old male Wistar rats were given intraperitoneal streptozotocin (50 mg/kg) to induce diabetes. Two weeks later, diabetic rats that had fasting blood glucose levels of […] were selected for studies. Caged in a metabolic cage system, the diabetic rats were administered a CB1 antagonist (i.e., compounds 10, 63, and 119) for 4 weeks while their urine was collected. To evaluate renal function, protein and creatinine levels in urine were measured by ELISA. To evaluate renal fibrosis, kidneys were dissected, fixed, paraffin wax embedded, and sectioned for histologic assessment after periodic acid-Schiff staining.

[4] = test system: male C57BL/6 mice; test: Tetrad response test (body temperature, tail-flick after CP55,940); format: in vivo; details: CP55,940 1 mg/kg i.p.
Procedure: Body temperature and tail-flick responses were measured by rectal thermometer (Natsume, Japan) and tail-flick analgesia meter RS232 (Columbus, USA), respectively, in male C57BL/6 mice. One hour after oral administration of a test compound dissolved in DMSO/Tween 80/H2O (1/1/8 by volume), 1 mg/kg of CP55,940 in saline containing 0.5% DMSO was injected intraperitoneally. Body temperature was measured at a time point of 30 and 65 min, and tail flick response was measured at a time point of 35 min after the injection.

[5] = test system: diet-induced obese mice; test: Treatment of diet-induced obese mice; format: in vivo, C57BL/6 mice; details: 21 days
Procedure: Six-week-old C57BL/6 mice were given high-fat diet (Research Diet D 12451; 45% fat, 20% protein, and 35% carbohydrate) for more than 12 weeks before treated with a test compound. Mice weight matched were assigned to different groups and orally gavaged once daily with a vehicle (10% DMSO/10% Tween 80/80% H2O) or a test compound at a defined dosage (e.g., 10 and 20 mg/kg) for at least two weeks. The sum of food taken for each treatment and the body weight were measured daily.

## CCCC#Cc1ccc(-c2c(CNS(=O)(=O)N3CCCCC3)c(C(=O)NN3CCCCC3)nn2-c2ccc(Cl)cc2Cl)s1 [Compound 63, 1-(2,4-Dichlorophenyl)-5-(5-(pent-1-ynyl)thiophen-2-yl)-N-(piperidin-1-yl)-4-((piperidine-1-sulfonamido)methyl)-1H-pyrazole-3-carboxamide]
[1]
  bone mineral density: increase
  trabecular bone microstructure: improvement
[2]
  Mankin score: reduction
[3]
  urine albumin level: decrease
  kidney fibrosis: reduction
[4]; oral dose up to 100 mg/kg
  reversal of CB1 agonist-induced analgesic response: did not reverse or slightly reversed
  reversal of CB1 agonist-induced hypothermia: did not reverse or slightly reversed

## O=C(NN1CCCCC1)c1nn(-c2ccc(Cl)cc2Cl)c(-c2ccc(C#Cc3ccc(C(F)(F)F)cc3)s2)c1CNS(=O)(=O)N1CCCC1 [Compound 10, 1-(2,4-Dichlorophenyl)-N-(piperidin-1-yl)-4-((pyrrolidine-1-sulfonamido)methyl)-5-(5-((4-(trifluoromethyl)phenyl)ethynyl)thiophen-2-yl)-1H-pyrazole-3-carboxamide]
[1]
  bone mineral density: increase
  trabecular bone microstructure: improvement
[5]; 10 mg/kg group, oral once daily
  relative weight-loss rate: 26.4%
[5]; 20 mg/kg group, oral once daily
  relative weight-loss rate: 32.8%
[2]
  Mankin score: reduction
[3]
  urine albumin level: decrease
  kidney fibrosis: reduction
[4]; oral dose up to 100 mg/kg
  reversal of CB1 agonist-induced analgesic response: did not reverse or slightly reversed
  reversal of CB1 agonist-induced hypothermia: did not reverse or slightly reversed

## Cc1c(C(=O)NN2CCCCC2)nn(-c2ccc(Cl)cc2Cl)c1-c1ccc(Cl)cc1 [rimonabant, reference compound]
[5]; rimonabant comparison, dose not given
  relative weight-loss rate: 29.1%
[4]; dose as low as 2 mg/kg
  reversal of CB1 agonist-induced analgesic response: significantly reversed
  reversal of CB1 agonist-induced hypothermia: significantly reversed

## O=C(NN1CCCCC1)c1nn(-c2ccc(Cl)cc2Cl)c(-c2ccc(Cl)cc2)c1CNS(=O)(=O)N1CCCC1 [Compound 119, 5-(4-Chlorophenyl)-1-(2,4-dichlorophenyl)-N-(piperidin-1-yl)-4-((pyrrolidine-1-sulfonamido)methyl)-1H-pyrazole-3-carboxamide]
[1]
  bone mineral density: increase
  trabecular bone microstructure: improvement
[2]
  Mankin score: reduction
[3]
  urine albumin level: decrease
  kidney fibrosis: reduction
[4]; oral dose up to 100 mg/kg
  reversal of CB1 agonist-induced analgesic response: did not reverse or slightly reversed
  reversal of CB1 agonist-induced hypothermia: did not reverse or slightly reversed
